Reference: US20040156869A1, “2-substituted quinazolin-4-ylamine analogues” (Neurogen Corporation, priority 2002, published 2004)

Target: human capsaicin receptor (VR1) (Homo sapiens, UniProt Q8NER1)
Test: Capsaicin receptor binding assay ([3H]RTX competition, VR1-transfected HEK293 membranes)
Details: not given

human capsaicin receptor (VR1), sequence (Q8NER1 whole entry): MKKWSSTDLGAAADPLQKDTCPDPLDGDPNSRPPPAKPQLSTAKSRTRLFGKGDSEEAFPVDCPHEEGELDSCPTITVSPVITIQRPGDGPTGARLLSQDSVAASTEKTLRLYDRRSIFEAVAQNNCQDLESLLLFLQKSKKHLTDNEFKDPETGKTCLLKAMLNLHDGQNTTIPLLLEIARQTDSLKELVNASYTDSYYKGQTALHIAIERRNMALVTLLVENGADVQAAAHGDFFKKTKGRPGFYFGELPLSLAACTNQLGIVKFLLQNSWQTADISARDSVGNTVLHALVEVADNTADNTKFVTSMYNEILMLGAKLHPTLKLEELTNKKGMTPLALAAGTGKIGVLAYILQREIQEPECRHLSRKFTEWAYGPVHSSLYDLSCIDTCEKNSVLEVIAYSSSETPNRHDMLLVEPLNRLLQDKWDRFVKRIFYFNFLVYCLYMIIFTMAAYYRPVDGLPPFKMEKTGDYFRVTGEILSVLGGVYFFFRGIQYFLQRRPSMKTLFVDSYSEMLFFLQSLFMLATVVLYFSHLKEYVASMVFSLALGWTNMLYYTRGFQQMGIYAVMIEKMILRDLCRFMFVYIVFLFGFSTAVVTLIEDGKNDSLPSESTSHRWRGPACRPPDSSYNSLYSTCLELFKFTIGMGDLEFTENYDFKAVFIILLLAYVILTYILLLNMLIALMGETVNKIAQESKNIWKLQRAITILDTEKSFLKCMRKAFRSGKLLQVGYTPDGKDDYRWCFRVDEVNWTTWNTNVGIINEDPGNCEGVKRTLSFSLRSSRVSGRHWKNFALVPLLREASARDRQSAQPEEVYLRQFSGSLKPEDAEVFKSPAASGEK

Ki, < 1000 nM:
FC(F)(F)c1ccc(Nc2nc(-c3ccc(N4CCCC4)nc3)nc3cc(-c4ncccc4C(F)(F)F)ccc23)cc1 [Compound 543, [2-(6-Pyrrolidin-1-yl-pyridin-3-yl)-7-(3-trifluoromethyl-pyridin-2-yl)-quinazolin-4-yl]-(4-trifluoromethyl-phenyl)-amine]
CC1CN(CCCc2nc(Nc3ccc(C(F)(F)F)nc3)c3ccc(-c4ncccc4C(F)(F)F)cc3n2)CC(C)O1 (centres unmarked) [Compound 544, [2-[3-(2,6-Dimethyl-morpholin-4-yl)-propyl]-7-(3-trifluoromethyl-pyridin-2-yl)-quinazolin-4-yl]-(6-trifluoromethyl-pyridin-3-yl)-amine]
FC(F)(F)c1cccc(Nc2nc(CN3CCOCC3)nc3cc(-c4ncccc4C(F)(F)F)cnc23)n1 [Compound 545, [2-Morpholin-4-ylmethyl-7-(3-trifluoromethyl-pyridin-2-yl)-pyrido[3,2-d]pyrimidin-4-yl]-(6-trifluoromethyl-pyridin-2-yl)-amine]
C[C@@H]1CN(Cc2nc(Nc3ccc(C(F)(F)F)cc3)c3ncc(-c4ncccc4C(F)(F)F)cc3n2)C[C@H](C)O1 [Compound 546, [2-(2,6-Dimethyl-morpholin-4-ylmethyl)-7-(3-trifluoromethyl-pyridin-2-yl)-pyrido[3,2-d]pyrimidin-4-yl]-(4-trifluoromethyl-phenyl)-amine (cis)]
C[C@@H]1CN(Cc2nc(Nc3ccc(C(F)(F)F)nc3)c3ncc(-c4ncccc4C(F)(F)F)cc3n2)C[C@H](C)O1 [Compound 547, [2-(2,6-Dimethyl-morpholin-4-ylmethyl)-7-(3-trifluoromethyl-pyridin-2-yl)-pyrido[3,2-d]pyrimidin-4-yl]-(6-trifluoromethyl-pyridin-3-yl)-amine (cis)]
FC(F)(F)c1ccc(Nc2nc(CN3CCSCC3)nc3cc(-c4ncccc4C(F)(F)F)ccc23)cc1 [Compound 548, [2-Thiomorpholin-4-ylmethyl-7-(3-trifluoromethyl-pyridin-2-yl)-quinazolin-4-yl]-(4-trifluoromethyl-phenyl)-amine]
CC1(C)CCCN(Cc2nc(Nc3ccc(C(F)(F)F)cc3)c3ccc(-c4ncccc4C(F)(F)F)cc3n2)C1 [Compound 549, [2-(3,3-Dimethyl-piperidin-1-ylmethyl)-7-(3-trifluoromethyl-pyridin-2-yl)-quinazolin-4-yl]-(4-trifluoromethyl-phenyl)-amine]
CCCN(CCC)Cc1nc(Nc2ccc(C(F)(F)F)cc2)c2ccc(-c3ncccc3C(F)(F)F)cc2n1 [Compound 550, [2-Dipropylaminomethyl-7-(3-trifluoromethyl-pyridin-2-yl)-quinazolin-4-yl]-(4-trifluoromethyl-phenyl)-amine]
CCCN(Cc1nc(Nc2ccc(C(F)(F)F)cc2)c2ccc(-c3ncccc3C(F)(F)F)cc2n1)CC1CC1 [Compound 551, [2-[(Cyclopropylmethyl-propyl-amino)-methyl]-7-(3-trifluoromethyl-pyridin-2-yl)-quinazolin-4-yl]-(4-trifluoromethyl-phenyl)-amine]
CC1CC(C)CN(Cc2nc(Nc3ccc(C(F)(F)F)cc3)c3ccc(-c4ncccc4C(F)(F)F)cc3n2)C1 (centres unmarked) [Compound 552, [2-(3,5-Dimethyl-piperidin-1-ylmethyl)-7-(3-trifluoromethyl-pyridin-2-yl)-quinazolin-4-yl]-(4-trifluoromethyl-phenyl)-amine]
O=S1(=O)CCN(Cc2nc(Nc3ccc(C(F)(F)F)nc3)c3ccc(-c4ncccc4C(F)(F)F)cc3n2)CC1 [Compound 553, [2-(1,1-dioxo-1λ^6-thiomorpholin-4-ylmethyl)-7-(3-trifluoromethyl-pyridin-2-yl)-quinazolin-4-yl]-(6-trifluoromethyl-pyridin-3-yl)-amine]
FC(F)(F)c1ccc(Nc2nc(CNC3CCSCC3)nc3cc(-c4ncccc4C(F)(F)F)ccc23)cn1 [Compound 554, [2-[(Tetrahydro-thiopyran-4-ylamino)-methyl]-7-(3-trifluoromethyl-pyridin-2-yl)-quinazolin-4-yl]-(6-trifluoromethyl-pyridin-3-yl)-amine]
FC(F)(F)c1ccc(Nc2nc(CN3CCSCC3)nc3cc(-c4ncccc4C(F)(F)F)ccc23)cn1 [Compound 555, [2-Thiomorpholin-4-ylmethyl-7-(3-trifluoromethyl-pyridin-2-yl)-quinazolin-4-yl]-(6-trifluoromethyl-pyridin-3-yl)-amine]
CC1(C)CCCN(Cc2nc(Nc3ccc(C(F)(F)F)nc3)c3ccc(-c4ncccc4C(F)(F)F)cc3n2)C1 [Compound 556, [2-(3,3-Dimethyl-piperidin-1-ylmethyl)-7-(3-trifluoromethyl-pyridin-2-yl)-quinazolin-4-yl]-(6-trifluoromethyl-pyridin-3-yl)-amine]
FC(F)(F)c1ccc(Nc2nc(CNCc3ccccc3)nc3cc(-c4ncccc4C(F)(F)F)ccc23)nc1 [Compound 560, [2-(Benzylamino-methyl)-7-(3-trifluoromethyl-pyridin-2-yl)-quinazolin-4-yl]-(5-trifluoromethyl-pyridin-2-yl)-amine]
CC1CN(CCc2nc(Nc3ccc(C(F)(F)F)cc3)c3ccc(-c4ncccc4C(F)(F)F)cc3n2)CC(C)O1 (centres unmarked) [Compound 561, [2-[2-(2,6-Dimethyl-morpholin-4-yl)-ethyl]-7-(3-trifluoromethyl-pyridin-2-yl)-quinazolin-4-yl]-(4-trifluoromethyl-phenyl)-amine]
O=CN1CCN(CCc2nc(Nc3ccc(C(F)(F)F)cc3)c3ccc(-c4ncccc4C(F)(F)F)cc3n2)CC1 [Compound 562, 4-{2-[4-(4-Trifluoromethyl-phenylamino)-7-(3-trifluoromethyl-pyridin-2-yl)-quinazolin-2-yl]-ethyl}-piperazine-1-carbaldehyde]
OCCC1CCN(CCCc2nc(Nc3ccc(C(F)(F)F)cc3)c3ccc(-c4ncccc4C(F)(F)F)cc3n2)CC1 [Compound 568, 2-(1-{3-[4-(4-Trifluoromethyl-phenylamino)-7-(3-trifluoromethyl-pyridin-2-yl)-quinazolin-2-yl]-propyl}-piperidin-4-yl)-ethanol]
OCC1CCN(CCCc2nc(Nc3ccc(C(F)(F)F)cc3)c3ccc(-c4ncccc4C(F)(F)F)cc3n2)CC1 [Compound 569, (1-{3-[4-(4-Trifluoromethyl-phenylamino)-7-(3-trifluoromethyl-pyridin-2-yl)-quinazolin-2-yl]-propyl}-piperidin-4-yl)-methanol]
OC1CCN(CCCc2nc(Nc3ccc(C(F)(F)F)cc3)c3ccc(-c4ncccc4C(F)(F)F)cc3n2)CC1 [Compound 570]
OC1CCCN(CCCc2nc(Nc3ccc(C(F)(F)F)cc3)c3ccc(-c4ncccc4C(F)(F)F)cc3n2)C1 (centres unmarked) [Compound 571, 1-{3-[4-(4-Trifluoromethyl-phenylamino)-7-(3-trifluoromethyl-pyridin-2-yl)-quinazolin-2-yl]-propyl}piperidin-3-ol]
CC1CCCN(CCCc2nc(Nc3ccc(C(F)(F)F)cc3)c3ccc(-c4ncccc4C(F)(F)F)cc3n2)C1 (centres unmarked) [Compound 572, [2-[3-(3-Methyl-piperidin-1-yl)-propyl]-7-(3-trifluoromethyl-pyridin-2-yl)-quinazolin-4-yl]-(4-trifluoromethyl-phenyl)-amine]
CN1CCN(CCCc2nc(Nc3ccc(C(F)(F)F)cc3)c3ccc(-c4ncccc4C(F)(F)F)cc3n2)CC1 [Compound 573, [2-[3-(4-Methyl-piperazin-1-yl)-propyl]-7-(3-trifluoromethyl-pyridin-2-yl)-quinazolin-4-yl]-(4-trifluoromethyl-phenyl)-amine]
FC(F)(F)c1ccc(Nc2nc(CNCc3ccccc3)nc3cc(-c4ncccc4C(F)(F)F)ccc23)cn1 [Compound 574, [2-(Benzylamino-methyl)-7-(3-trifluoromethyl-pyridin-2-yl)-quinazolin-4-yl]-(6-trifluoromethyl-pyridin-3-yl)-amine]
CN(Cc1ccccc1)Cc1nc(Nc2ccc(C(F)(F)F)nc2)c2ccc(-c3ncccc3C(F)(F)F)cc2n1 [Compound 575, [2-[(Benzyl-methyl-amino)-methyl]-7-(3-trifluoromethyl-pyridin-2-yl)-quinazolin-4-yl]-(6-trifluoromethyl-pyridin-3-yl)-amine]
COc1ccccc1CNCc1nc(Nc2ccc(C(F)(F)F)nc2)c2ccc(-c3ncccc3C(F)(F)F)cc2n1 [Compound 576, [2-[(2-Methoxy-benzylamino)-methyl]-7-(3-trifluoromethyl-pyridin-2-yl)-quinazolin-4-yl]-(6-trifluoromethyl-pyridin-3-yl)-amine]

Same assay, conditions: Table III; capsaicin receptor binding

Ki, < 1000 nM:
CCCN(CCC)Cc1nc(Nc2ccc(C(F)(F)F)nc2)c2ccc(-c3ncccc3C(F)(F)F)cc2n1 [Compound 557, [2-Dipropylaminomethyl-7-(3-trifluoromethyl-pyridin-2-yl)-quinazolin-4-yl]-(6-trifluoromethyl-pyridin-3-yl)-amine]
CCCN(Cc1nc(Nc2ccc(C(F)(F)F)nc2)c2ccc(-c3ncccc3C(F)(F)F)cc2n1)CC1CC1 [Compound 558, [2-[(Cyclopropylmethyl-propyl-amino)-methyl]-7-(3-trifluoromethyl-pyridin-2-yl)-quinazolin-4-yl]-(6-trifluoromethyl-pyridin-3-yl)-amine]
CC1CC(C)CN(Cc2nc(Nc3ccc(C(F)(F)F)nc3)c3ccc(-c4ncccc4C(F)(F)F)cc3n2)C1 (centres unmarked) [Compound 559, [2-(3,5-Dimethyl-piperidin-1-ylmethyl)-7-(3-trifluoromethyl-pyridin-2-yl)-quinazolin-4-yl]-(6-trifluoromethyl-pyridin-3-yl)-amine]
